Type in all cases: cell-based
One assay deals with isolated human muscles. The note with it: 150 μM C8; elevated extracellular K+ and low dose TTX.
Assay [1] has as its system isolated rat soleus muscles. Put plainly: Recovery of nerve-stimulated force in isolated rat soleus muscles exposed to sub-maximal tubocurarine. The note with it: change in AUC vs AUC after 40 min in tubocurarine before addition. As to the method: Experiments were performed using rat soleus muscles from either young (4-wk-old) or adult Wistar rats (12-14-week-old). Animal handling, killing and isolation of muscle is described elsewhere All experiments were performed using normal Krebs-Ringer bicarbonate solution (NKR). In solutions with elevated Mg^2+, MgCl2 was added to NKR-solution causing minor increases in osmolarity and ionic strength. In solutions with elevated K^+, 4 mM NaCl was replaced by 4 mM KCl in the NKR.
In all contraction experiments, isometric force production was determined and force produced during contractions was quantified by measuring the integral of the force response (AUC). Stimulation and force recordings have been described elsewhere. […] In these latter experiments, extracellular recordings of action potentials (M-waves) could be measured without temporal overlap with stimulation artefacts.
The aim was to find compounds that by inhibition of CIC-1 channels can recover nerve-stimulated force under conditions of fatigue including conditions where fatigue is caused by compromised neuromuscular transmission. Neuromuscular transmission dysfunction can develop because of both pre- and/or post-synaptic complications in connection with a disorder or as part of neuromuscular blockade during/after surgery. In the initial series of drug testing, experiments were performed with isolated muscles in the presence of sub-maximal ACh receptor antagonist tubocurarine. Since the inclusion of tubocurarine caused a partial loss of neuromuscular transmission this experiment mimics the conditions in myasthenia gravis and neuromuscular blockade. To mimic conditions with pre-synaptic complication (Lambert Eaton syndrome, motor neuron disorder, polyneuropathy) the intact nerve-muscle preparations were incubated at elevated extracellular Mg^2+, which is known to suppress release of ACh from nerve terminals of motor neurons.
The experiments also illustrate that field stimulation of the entire nerve-muscle preparation selectively activates the motor nerve when short-duration pulses (0.02 vs 0.2 ms) were used. In FIG. 1A the preparation was stimulated either via field stimulation or via nerve-stimulation using a suction electrode. With the suction electrode only the nerve could be stimulated. When exposed to a submaximal concentration of the ACh receptor antagonist tubocurarine (0.2 μM) a clear drop in peak force and a further decline (or fade) in force during the stimulation developed. This drop in force clearly reflected compromised neuromuscular transmission, as the decline in peak force and fading were not seen with direct stimulation of the muscle. […] Thus, loss of M-wave and force with tubocurarine reflected partial blockade of neuromuscular function. Such fading of force and M-waves during stimulation represent clinical hallmarks of both myasthenia gravis and neuromuscular blockade in connection with surgery. In FIG. 1B, observations with normal (0.2 ms) and short-duration (0.02 ms) pulses have been compared. It can be seen that only with short-duration pulses did tubocurarine cause a decline in peak force and fading (FIG. 1B). This confirms that short-duration pulses in field stimulation could be used as specific nerve-stimulation. […] Elevated extracellular Mg^2+ could thus be used to partially block neuromuscular transmission and thus be used as a model of conditions with compromised pre-synaptic function (Lambert Eaton syndrome, amyotrophic lateral sclerosis, spinal muscular atrophy). […]

The next assay relates to isolated rat muscle. Put plainly: Measurement of force in an in vitro model: isolated rat soleus nerve-muscle preparation, 115 nM tubocurarine. The conditions noted are these: 50 μM compound, 40 mins exposure, 115 nM tubocurarine, isolated rat soleus nerve-muscle preparation. As to the method:
FIGS. 12A-12B. […] Force traces from a representative muscle stimulated to contract in 1) control condition before addition of neuromuscular blocking agent, 2) the force response to stimulation after 90 minutes incubation with Tubocurarine. […] The traces presented in FIG. 12A (1, 2, 3), correspond to the dotted lines in FIG. 12B, respectively.
Recovery of force is quantified as the percentage of the force prior to tubocurarine that is recovered by the compound.
The current invention relates to compounds that inhibit CIC-1 ion channels and increase muscle excitability and thereby improve muscle function in clinical conditions where muscle activation is failing. Such conditions result in loss of contractile function of skeletal muscle, weakness and excessive fatigue. […]
Experimentally, soleus muscles from 4-5 wk old rats were isolated with the motor nerve remaining attached. […] Stimulation of the motor nerve led to activation of the muscle fibres and ensuing force production that was recorded.
After mounting the nerve-muscle preparation in the experimental setup, the contractile function of the muscle was initially assessed under the control conditions (FIG. 2A). […] To quantify the ability of the compound to restore force the percentage of the initial force that was restored was determined after 40 mins of compound exposure (FIG. 2B) and the point increase is reported in Table 8.

In the case of `C[C@H](Oc1ccc(Br)cc1)C(=O)O` [Compound C8, (2S)-2-(4-bromophenoxy)propanoic acid], in the assay on isolated human muscles, the contractile force result is reported as “markedly recovery”. The “50 μM % change after addition (AUC of nerve-stimulated force)” value in assay [1] (50 μM compound, AUC related to force prior to tubocurarine) is recorded as 16%. Besides, in assay [1] (150 μM compound), the “150 μM % change after addition (AUC of nerve-stimulated force)” value was determined as 23%.

On to “(2S)-2-(4-bromophenoxy)(2-^2H)butanoic acid [Compound A-60]”, for which the “Point increase (%) of initial force that was restored” value in the assay with isolated rat muscle was 62%.

For the origin of these results see patent publication US11730714B2, “Compounds for the treatment of neuromuscular disorders” (NMD PHARMA A/S, priority 2017, dated 2023).
